Reference: publication PMC3622084 (Biochemistry, 2013)

What was measured:
Experiment in all cases: Clark electrode O2 uptake, cytochrome c / ascorbate / TMPD
Type in all cases: biochemical
[1] = target: T1, Rhodobacter sphaeroides cytochrome c oxidase (RsCcO) (Cereibacter sphaeroides, UniProt P33517+Q03736, Q03736:E101A)
[2] = target: T1, Rhodobacter sphaeroides cytochrome c oxidase (RsCcO); remark: listed apart in the source
[3] = target: Rhodobacter sphaeroides cytochrome c oxidase (RsCcO) (Cereibacter sphaeroides, UniProt P33517+Q03736); settings: read-out: K1/2; inhibition; 0.01% DDM, pH 7.4, 30 μM bovine cytochrome c
Sequence of Rhodobacter sphaeroides cytochrome c oxidase (RsCcO) (Cereibacter sphaeroides, UniProt P33517+Q03736) (P33517 whole entry): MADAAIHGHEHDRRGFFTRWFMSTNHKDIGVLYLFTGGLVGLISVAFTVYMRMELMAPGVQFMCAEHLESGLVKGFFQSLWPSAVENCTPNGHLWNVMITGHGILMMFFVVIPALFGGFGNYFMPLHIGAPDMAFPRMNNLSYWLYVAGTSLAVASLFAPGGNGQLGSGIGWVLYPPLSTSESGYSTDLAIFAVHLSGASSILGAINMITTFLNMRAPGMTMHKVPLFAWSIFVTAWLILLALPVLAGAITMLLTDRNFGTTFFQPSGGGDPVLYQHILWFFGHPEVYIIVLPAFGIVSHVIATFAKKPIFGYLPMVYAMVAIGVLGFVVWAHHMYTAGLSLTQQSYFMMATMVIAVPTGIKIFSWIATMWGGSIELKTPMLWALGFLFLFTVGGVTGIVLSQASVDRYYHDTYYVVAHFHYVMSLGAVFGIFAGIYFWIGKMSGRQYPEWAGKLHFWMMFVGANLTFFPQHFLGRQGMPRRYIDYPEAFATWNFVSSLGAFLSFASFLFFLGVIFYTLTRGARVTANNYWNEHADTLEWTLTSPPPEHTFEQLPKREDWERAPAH
Sequence of Rhodobacter sphaeroides cytochrome c oxidase (RsCcO) (Cereibacter sphaeroides, UniProt P33517+Q03736) (Q03736 26-303 limits assumed): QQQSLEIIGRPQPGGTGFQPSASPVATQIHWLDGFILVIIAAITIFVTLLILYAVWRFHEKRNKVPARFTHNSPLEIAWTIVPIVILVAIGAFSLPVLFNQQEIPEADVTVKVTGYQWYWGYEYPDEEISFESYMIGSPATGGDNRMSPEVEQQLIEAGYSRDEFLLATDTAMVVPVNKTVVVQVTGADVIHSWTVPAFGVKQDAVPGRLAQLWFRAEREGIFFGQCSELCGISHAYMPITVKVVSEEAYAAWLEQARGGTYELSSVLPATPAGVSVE

T1 sequence (P33517 whole entry): as the sequence (P33517 whole entry) above
T1 sequence (Q03736 26-303 E101A limits assumed): as the sequence (Q03736 26-303 limits assumed) above, with E76A counted along it

C=CC1=C(C)/C(=C/c2[nH]c(Cc3[nH]c(/C=C4\NC(=O)C(C)=C4C=C)c(C)c3CCC(=O)O)c(CCC(=O)O)c2C)NC1=O [bilirubin]
EC50 [1]: ~50 µM

C[C@H](CCC(=O)O)[C@H]1CC[C@H]2[C@@H]3[C@H](O)C[C@@H]4C[C@H](O)CC[C@]4(C)[C@H]3C[C@H](O)[C@]12C [cholate]
EC50 [1]: 200 µM

CC(C)CCC[C@@H](C)[C@H]1CC[C@H]2[C@@H]3CC=C4C[C@@H](OC(=O)CCC(=O)O)CC[C@]4(C)[C@H]3CC[C@]12C [cholesteryl hemisuccinate]
EC50 [1]: ~80 µM

CCCCCCCC/C=C\CCCCCCCC(=O)OC[C@@H](O)COP(=O)([O-])OCC[N+](C)(C)C [lyso-oleoyl phosphatidylcholine]
IC50 [2]: ~17 µM

CC(C)CCCC(C)CCCC(C)CCCC(C)CC(=O)O (centres unmarked) [phytanic acid]
EC50 [1]: ~4 µM

C=CC1=C(C)c2cc3[nH]c(cc4nc(cc5[nH]c(cc1n2)c(C)c5CCC(=O)O)C(CCC(=O)O)=C4C)c(C)c3C=C [protoporphyrin IX]
EC50 [1]: ~14 µM

CC1=C(/C=C/C(C)=C/C=C/C(C)=C/C(=O)O)C(C)(C)CCC1 [retinoic acid]
EC50 [1]: ~8 µM

CHOBIMALT
IC50 [3]: ~200 µM
